Series [1] is described as follows: Solubility testing in water by portionwise addition until saturation. The format is physicochemical. The procedure: The solubility of compounds 2-4 was determined by portionwise addition of the compounds to water until saturation was obtained. Water (10 mL) was added to a 20-mL vial. About 100 mg of Compound 2 was added. The suspension was stirred at room temperature for 20 minutes until the contents became a clear solution. Compound 2 (˜100 mg portionwise) was added repeatedly with 30 min stirring time between the additions. Once a suspension was obtained after continuous stirring for 2 hours, the suspension was stirred overnight. The same procedure was used for the suspension preparations of Compound 3 and Compound 4.
After stirring overnight, filtration of each sample was attempted.
An aliquot of the suspension of Compound 2 was filtered through a 0.22 micron inline syringe filter.
About 1 mL of the aqueous solutions prepared above was diluted with water by 50%. The pH of the 50% diluted solutions was adjusted to pH 7 either by 0.1 N HCl or by 0.1 N NaOH. Solubility values for the three compounds in the solutions/suspensions before and after dilution are given in the in TABLE 3.
The solubility of Compounds 2-4 was determined by portionwise addition of the compounds to water until saturation was obtained. After stirring overnight, the suspensions were filtered and analyzed by HPLC. […] The solubility of Compound 3 was >200 mg/mL. The absolute solubility of Compound 3 was not determined because in the course of analysis, the solution of Compound 3 became too viscous to stir. […] The 50% diluted solutions of Compounds 2-4 were not viscous, and the compounds remained in solution for 4 weeks. […] All of the diluted solutions were easily syringable over 4 weeks' time.

Series [2] is described as follows: Physical stability (appearance) of the aqueous solutions standing at room temperature. As to conditions: for Appearance of solution: undiluted. The series is classed as physicochemical.
Series [3] can be described thus: Syringability testing (200 g weight on BD 1-mL syringe plunger, 27 G needle). The format is physicochemical. The settings on record: for Syringability: time to expel 1 mL: 50% diluted solution. The procedure:
Syringability testing was carried out by applying 200 g of weight on top of a BD 1-mL syringe plunger and measuring the time required to expel 1 mL of the saturated solutions through a 27 G needle. The times are recorded in TABLE 4. At T=0, 43 seconds were required to expel 1 mL of Compound 2, while 8 seconds were required to expel 1 mL of Compound 4. In contrast, approximately 5 minutes were required to expel only 0.1 mL of Compound 3, based on the very high viscosity of the solution relative to that of the other two.
Syringability test results of the 50% diluted solutions (TABLE 5) indicated a slight increase in viscosity (syringability test for water was 10 sec). All three solutions remained easily syringable.

The nature of series [4]: HPLC purity analyses of aqueous solutions over time at room temperature (chemical stability). The series is classed as physicochemical.
The next series relates to phospho-Akt1 (pAkt). Nature of the series: Phospho-Akt activation assay in human umbilical vein endothelial cells (Western blot). The format is cell-based. As for the experimental part: The ability of the small molecule analogues as shown in EXAMPLES 1-3 to stimulate production of phospho-Akt1 (pAkt) was tested. Akt plays a critical role in controlling cell survival and apoptosis, and Akt phosphorylation is increased by the activation of Tie-2. Akt activation can be detected by an antibody that recognizes phosphorylation on the serine 473 residue on Akt.
HUVECs were seeded at 500,000 cells/mL in chemically-defined basal media, and supplemented with distinct growth factors (EGM-2). The following growth factors were required for survival and normal phenotypic expression of endothelial characteristics: fetal bovine serum 2%, hydrocortisone, human fibroblast growth factor-B, vascular endothelial growth factor, recombinant insulin growth factor R3, ascorbic acid, human epidermal growth factor, gentamicin sulfate, amphotericin B, and heparin. Cells were derived from one donor, cultivated in 10 cm dishes, and expanded upon reaching 90% confluence. After three passages, the cells were expanded and ready for testing.
The cells were seeded at 25,000 cells/mL in 6-well plates, and covered with 2 mL of complete media. The cells were fed on day 2 of culture with 2 mL of fresh EGM-2 media. 72 hours after plating, the cells were serum starved by rinsing twice with 2 mL of sterile phosphate buffered saline, and then placed at 37° C. for 3 hours in the presence of basal EGM-2 media (1.5 mL/well without growth factors). The serum starvation allowed the cells to become quiescent.
Compounds 2-4 were dissolved in distilled deionized water at the following concentrations: • Compound 2 (Molecular weight: 622.7): 31 mg/ml. • Compound 3 (Molecular weight: 622.7): 26 mg/ml. • Compound 4 (Molecular weight: 636.7): 32 mg/ml.
All compounds were stored at 4° C. […] Stock concentrations of the above molecules were made at a final working concentration of 1 mM. Specific microliter volumes of the working concentration were added to each 6 well plate at the following concentrations: 3, 10, and 30 micromolar (μM). Cells were treated for 30 minutes.
10× cell lysis buffer was diluted fresh with dH2O. The 1× cell lysis buffer contained: 20 mM Tris-HCl (pH 7.5), 150 mM NaCl, 1 mM Na2EDTA, 1 mM EGTA, 1% Triton, 2.5 mM sodium pyrophosphate, 1 mM β-glycerophosphate, 1 mM Na3VO4, 1 μg/ml leupeptin, and 1 mM PMSF. Immediately before use, 1 mM PMSF was prepared by diluting from a stock of 1 M PMSF made up in DMSO. In addition, a 1× concentration of a Halt protease & phosphatase inhibitor cocktail was included. At the end of the 30 minute treatment, the media was discarded from the cell culture wells by shaking out, and the remaining media was aspirated off the wells. Ice-cold lysis buffer was added at 140 μL/well, and the culture was placed on ice or in a cold room for 30 minutes while rocking. Cell lysates were collected using a cell scraper, placed in microfuge tubes, and stored at −80° C. The levels of protein were quantitated using a microtiter plate BCA protein assay.
2× Laemmli sample buffer was added in equal volume to the […] cell lysis buffer, which contained the lysed endothelial cells. The solution was heated at 100° C. for 5 minutes and then sonicated for 10 seconds. After sonication, the lysates were spun by centrifuge at 4° C. for 5 minutes at 17,000 rpm. 70-100 μg of protein calculated from BCA assay prior to addition of 2× Laemmli sample were added per well of an 8% polyacrylamide gel.
Electrophoresis was performed at 150 volts for approximately 90 minutes at room temperature with 1× Laemmli running buffer. The proteins from the gel were transferred to nitrocellulose at 100 volts for 45 minutes on ice.
The nitrocellulose membranes were removed quickly without drying and placed in phosphate buffered saline (pH 7.3) with 1% nonfat dried milk. The membranes were blocked in the milk solution while rocking for 2 hours at room temperature or overnight at 4° C. […]
On the technique in general: In western blotting, separated proteins are transferred to a membrane and probed.

Entries after “also recorded” stand apart in the source; their conditions may differ.

As usually defined, the solubility is the concentration that dissolves in the medium under given conditions. Take `COC(=O)N[C@@H](Cc1ccccc1)C(=O)N(C)[C@@H](Cc1ccc(NS(=O)(=O)[O-])cc1)c1csc(-c2cccs2)n1.[Na+]` [Compound 3, sodium (4-{(S)-2-{(S)-2-[(methoxycarbonyl)amino]-N-methyl-3-phenylpropanamido}-2-[2-(thiophen-2-yl)thiazol-4-yl]ethyl}phenyl)sulfamate]: the “Physical state of the preparation” value is listed as “(solution)” in series [1] (50% dilution, T = 4 weeks) and “(viscous solution)” in series [1] (Before dilution, T = 0). In addition, the “Solubility value in water” value in series [1] (Before dilution, T = 5 weeks, room temperature) is “No change*”. Moreover, the “Amount (g) of compound added until saturation” value in series [1] (added portionwise to 10 mL water, room temperature) was determined as 2.323 g. The Physical appearance result in series [1] (after portionwise addition to 10 mL water) is recorded as “hazy, highly viscous mixture; also recorded: No precipitate”. In addition, in series [1] (filtration of the sample attempted after stirring overnight), the Filtration entry was “not filtered successfully and No”. For the same molecule, the solubility at 4 weeks in series [1] (water, pH 7, aqueous buffer, 50% dilution with water, adjusted to pH 7, T = 4 weeks) is over 115 mg/mL. Also, in series [1] (water, thermodynamic from solid, Before dilution, T = 0, estimated from weight added), the solubility at 0 weeks is over 230 mg/mL. In addition, the solubility in series [1] (water, thermodynamic from solid, Conclusions: suspensions stirred overnight, filtered and analyzed by HPLC, initial) was over 200 mg/mL. Also, the “Gelation or precipitation of undiluted solution” value in series [2] (throughout the 4-week study period (Compound 2: over 5 weeks)) is on record as “No gelation or precipitation”. The Appearance of solution entry in series [2] (T = 0), in series [2] (T = 2 week), in series [2] (T = 3 week), in series [2] (T = 4 week), in series [2] (T = 1 day) and in series [2] (T = 2 day) was “Hazy” in each case. The Appearance of solution entry in series [2] (T = 3 day), in series [2] (T = 4 day), in series [2] (T = 5 day) and in series [2] (T = 6 day) was “Hazy” in each case. The “Syringability: time to expel 1 mL” value came to 12 s in series [3] (T = 2 week); 13 s in series [3] (T = 3 week); 15 s in series [3] (T = 4 week); 13 s in series [3] (T = 2 day); 14 s in series [3] (T = 3 day); 17 s in series [3] (T = 4 day). Besides, the “Syringability: time to expel 1 mL” value in series [3] (T = 7 day) is 15 s. Also, in series [3] (undiluted solutions), the “Syringability of the saturated solutions (in words)” value was “too viscous to syringe”. Besides, the HPLC purity in series [4] (50% diluted samples, room temperature, T = 4 weeks) is 97.9%; in series [4] (undiluted samples, T = 0 (dry sample)), 99.08%; in series [4] (undiluted samples, room temperature, T = 5 weeks), 97.3%; in series [4] (undiluted samples, room temperature, T = 1 day), 98.26%. Besides, in the series with phospho-Akt1 (pAkt) (HUVECs, 30 μM, 30 minutes treatment), the “pAkt signal above control” value was 80%. In addition, in the series on phospho-Akt1 (pAkt) (HUVECs, 3, 10 and 30 μM), the “Relative potencies for activation of pAkt” value is “Compound 2>Compound 4>Compound 3”.

Regarding `CCc1csc([C@H](Cc2ccc(NS(=O)(=O)O)cc2)NC(=O)[C@H](Cc2ccccc2)NC(=O)OC)n1` [Compound 5, 4-{(S)-2-[(S)-2-(methoxycarbonylamino)-3-phenylpropanamido]-2-(4-ethylthiazol-2-yl)ethyl}phenylsulfamic acid, reference compound], the “pAkt levels above control” value with phospho-Akt1 (pAkt) (HUVECs, highest dose 10 μM, two separate experiments) is recorded as 278%.

These data come from patent US12187715B2, “Small molecule activators of Tie-2” (EyePoint Pharmaceuticals, Inc., priority 2019, dated 2025).
